Source: ChEMBL document CHEMBL1138939, “Privileged structure based ligands for melanocortin receptors--4,4-disubstituted piperidine derivatives” (Bioorg Med Chem Lett, 2006)
pKi: −log10 of the molar value.

Target: Melanocortin receptor 4 (Homo sapiens, UniProt P32245)
Test: Displacement of [125I]NDP-alpha-MSH from human MC4 receptor transfected in HEK293 cells
Format: cell-based

Sequence of Melanocortin receptor 4 (P32245 whole entry): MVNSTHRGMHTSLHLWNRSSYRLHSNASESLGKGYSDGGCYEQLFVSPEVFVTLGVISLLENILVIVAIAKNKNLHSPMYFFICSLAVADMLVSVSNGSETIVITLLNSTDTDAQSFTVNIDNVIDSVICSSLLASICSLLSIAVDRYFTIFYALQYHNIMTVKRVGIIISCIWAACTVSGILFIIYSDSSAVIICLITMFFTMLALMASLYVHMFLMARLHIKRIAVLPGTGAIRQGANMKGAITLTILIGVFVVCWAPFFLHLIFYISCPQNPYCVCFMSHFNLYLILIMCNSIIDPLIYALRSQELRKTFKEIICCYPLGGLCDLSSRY

Compound	pKi
CCC1(N2CCN(C(=O)[C@@H](Cc3ccc(Cl)cc3)NC(=O)CC3NCc4ccccc43)CC2)CCN(C)CC1 (some centres not stated)	6.43
CC(C)CC1(N2CCN(C(=O)[C@@H](Cc3ccc(Cl)cc3)NC(=O)CC3NCc4ccccc43)CC2)CCN(C(=O)C(C)C)CC1 (some centres not stated)	7.00
CCCCCCC1(N2CCN(C(=O)[C@@H](Cc3ccc(Cl)cc3)NC(=O)CC3NCc4ccccc43)CC2)CCN(C)CC1 (some centres not stated)	7.16
CC(C)C1(N2CCN(C(=O)[C@@H](Cc3ccc(Cl)cc3)NC(=O)CC3NCc4ccccc43)CC2)CCN(C)CC1 (some centres not stated)	7.38
CC(C)CC1(N2CCN(C(=O)[C@@H](Cc3ccc(Cl)cc3)NC(=O)CC3NCc4ccccc43)CC2)CCN(C(C)C)CC1 (some centres not stated)	7.89
CC(C)CC1(N2CCN(C(=O)[C@@H](Cc3ccc(Cl)cc3)NC(=O)CC3NCc4ccccc43)CC2)CCCCC1 (some centres not stated)	7.33
CN1CCC(Cc2ccccc2)(N2CCN(C(=O)[C@@H](Cc3ccc(Cl)cc3)NC(=O)CC3NCc4ccccc43)CC2)CC1 (some centres not stated)	7.36

The remaining compounds from weak to strong by pKi, led by results:

pKi	Compound
6.67	CN1CCC(c2ccccc2)(N2CCN(C(=O)[C@@H](Cc3ccc(Cl)cc3)NC(=O)CC3NCc4ccccc43)CC2)CC1 (some centres not stated)
7.12	CC(C)CC1(N2CCN(C(=O)[C@@H](Cc3ccc(Cl)cc3)NC(=O)CC3NCc4ccccc43)CC2)CCS(=O)(=O)CC1 (some centres not stated)
7.16	CC(C)CC1(N2CCN(C(=O)[C@@H](Cc3ccc(Cl)cc3)NC(=O)CC3NCc4ccccc43)CC2)CCSCC1 (some centres not stated)
7.43	CC(=O)N1CCC(CC(C)C)(N2CCN(C(=O)[C@@H](Cc3ccc(Cl)cc3)NC(=O)CC3NCc4ccccc43)CC2)CC1 (some centres not stated)
7.50	CC(C)CC1(N2CCN(C(=O)[C@@H](Cc3ccc(Cl)cc3)NC(=O)CC3NCc4ccccc43)CC2)CCOCC1 (some centres not stated)
7.56	CC(C)CC1(N2CCN(C(=O)[C@@H](Cc3ccc(Cl)cc3)NC(=O)CC3NCc4ccccc43)CC2)CCN(S(C)(=O)=O)CC1 (some centres not stated)
7.81	CCN1CCC(CC(C)C)(N2CCN(C(=O)[C@@H](Cc3ccc(Cl)cc3)NC(=O)CC3NCc4ccccc43)CC2)CC1 (some centres not stated)
7.90	CC(C)CC1(N2CCN(C(=O)[C@@H](Cc3ccc(Cl)cc3)NC(=O)CC3NCc4ccccc43)CC2)CCN(C)CC1 (some centres not stated)
8.17	CN1CCC(CC2CCCCC2)(N2CCN(C(=O)[C@@H](Cc3ccc(Cl)cc3)NC(=O)CC3NCc4ccccc43)CC2)CC1 (some centres not stated)
8.30	CCN(CC)CC(CC1CCCCC1)N1CCN(C(=O)[C@@H](Cc2ccc(Cl)cc2)NC(=O)CC2NCc3ccccc32)CC1 (some centres not stated)
